Results as given in patent US12180194B2, “Multi-aziridine compound” (Covestro (Netherlands) B.V., priority 2018, dated 2024).

Key:
[1] = test system: Rtkn-GFP; experiment: ToxTracker genotoxicity assay, Rtkn-GFP reporter induction; settings: for Genotoxicity test, With S9 rat liver extract, Rtkn, 10 / Genotoxicity test, Without S9 rat liver extract, Rtkn, 10: GFP induction vs vehicle at 10% cytotoxicity; for Genotoxicity test, With S9 rat liver extract, Rtkn, 10 / Genotoxicity test, With S9 rat liver extract, Rtkn, 25 / Genotoxicity test, With S9 rat liver extract, Rtkn, 50: 3 h exposure with S9, 24 h recovery; for Genotoxicity test, Without S9 rat liver extract, Rtkn, 10 / Genotoxicity test, Without S9 rat liver extract, Rtkn, 25 / Genotoxicity test, Without S9 rat liver extract, Rtkn, 50: 24 h exposure, no S9; for Genotoxicity test, With S9 rat liver extract, Rtkn, 25 / Genotoxicity test, Without S9 rat liver extract, Rtkn, 25: GFP induction vs vehicle at 25% cytotoxicity; for Genotoxicity test, With S9 rat liver extract, Rtkn, 50 / Genotoxicity test, Without S9 rat liver extract, Rtkn, 50: GFP induction vs vehicle at 50% cytotoxicity
[2] = test system: Bscl2-GFP; experiment: ToxTracker genotoxicity assay, Bscl2-GFP reporter induction; settings: for Genotoxicity test, With S9 rat liver extract, Bscl 2, 10 / Genotoxicity test, Without S9 rat liver extract, Bscl 2, 10: GFP induction vs vehicle at 10% cytotoxicity; for Genotoxicity test, With S9 rat liver extract, Bscl 2, 10 / Genotoxicity test, With S9 rat liver extract, Bscl 2, 25 / Genotoxicity test, With S9 rat liver extract, Bscl 2, 50: 3 h exposure with S9, 24 h recovery; for Genotoxicity test, Without S9 rat liver extract, Bscl 2, 10 / Genotoxicity test, Without S9 rat liver extract, Bscl 2, 25 / Genotoxicity test, Without S9 rat liver extract, Bscl 2, 50: 24 h exposure, no S9; for Genotoxicity test, With S9 rat liver extract, Bscl 2, 25 / Genotoxicity test, Without S9 rat liver extract, Bscl 2, 25: GFP induction vs vehicle at 25% cytotoxicity; for Genotoxicity test, Without S9 rat liver extract, Bscl 2, 50 / Genotoxicity test, With S9 rat liver extract, Bscl 2, 50: GFP induction vs vehicle at 50% cytotoxicity

Structure (SMILES) | Genotoxicity test, With S9 rat liver extract, Rtkn, 10 [1] | Genotoxicity test, Without S9 rat liver extract, Rtkn, 10 [1] | Genotoxicity test, With S9 rat liver extract, Rtkn, 25 [1] | Genotoxicity test, Without S9 rat liver extract, Rtkn, 25 [1] | Genotoxicity test, With S9 rat liver extract, Rtkn, 50 [1] | Genotoxicity test, Without S9 rat liver extract, Rtkn, 50 [1] | Genotoxicity test, With S9 rat liver extract, Bscl 2, 10 [2] | Genotoxicity test, Without S9 rat liver extract, Bscl 2, 10 [2] | Genotoxicity test, With S9 rat liver extract, Bscl 2, 25 [2] | Genotoxicity test, Without S9 rat liver extract, Bscl 2, 25 [2] | Genotoxicity test, Without S9 rat liver extract, Bscl 2, 50 [2] | Genotoxicity test, With S9 rat liver extract, Bscl 2, 50 [2]
CCCCOCC(CN1CC1C)OC(=O)NCCCCCCn1c(=O)n(CCCCCCNC(=O)OC(COCCCC)CN2CC2C)c(=O)n(CCCCCCNC(=O)OC(COCCCC)CN2CC2C)c1=O (centres unmarked) [Ex. 14] | 0.9 fold | 0.8 fold | 0.8 fold | 0.8 fold | 0.6 fold | 0.6 fold | 1.0 fold | 1.1 fold | 1.0 fold | 1.1 fold | 1.1 fold | –
CCCCOCC(CN1CC1C)OC(=O)NCCCCCC/N=c1\oc(=O)n(CCCCCCNC(=O)OC(COCCCC)CN2CC2C)c(=O)n1CCCCCCNC(=O)OC(COCCCC)CN1CC1C (centres unmarked) [Ex. 15] | 1.1 fold | 1.1 fold | – | 1.0 fold | – | 0.9 fold | 1.0 fold | 1.1 fold | – | 1.1 fold | 0.9 fold | –
CC1CN1C1CCCCC1OC(=O)NCCCCCCn1c(=O)n(CCCCCCNC(=O)OC2CCCCC2N2CC2C)c(=O)n(CCCCCCNC(=O)OC2CCCCC2N2CC2C)c1=O (centres unmarked) [Ex. 19] | 1.2 fold | 1.2 fold | 1.3 fold | 1.3 fold | 1.3 fold | – | 1.1 fold | 1.1 fold | 1.2 fold | 1.3 fold | – | 1.2 fold
CCCCC(CC)COCC(CN1CC1C)OC(=O)NCCCCCCn1c(=O)n(CCCCCCNC(=O)OC(COCC(CC)CCCC)CN2CC2C)c(=O)n(CCCCCCNC(=O)OC(COCC(CC)CCCC)CN2CC2C)c1=O (centres unmarked) [Ex. 20] | 1.0 fold | 1.1 fold | 1.1 fold | 1.3 fold | 1.1 fold | 1.2 fold | 0.9 fold | 1.0 fold | 0.8 fold | 1.0 fold | 0.7 fold | 0.7 fold
Cc1ccccc1OCC(CN1CC1C)OC(=O)NCCCCCCn1c(=O)n(CCCCCCNC(=O)OC(COc2ccccc2C)CN2CC2C)c(=O)n(CCCCCCNC(=O)OC(COc2ccccc2C)CN2CC2C)c1=O (centres unmarked) [Ex. 21] | 1.2 fold | 1.2 fold | 1.4 fold | 1.3 fold | 1.5 fold | 1.5 fold | 1.0 fold | 1.1 fold | 1.3 fold | 1.2 fold | 1.6 fold | 1.4 fold
CCCCCCCCCC(=O)OCC(CN1CC1C)OC(=O)NC(C)(C)c1cccc(C(C)(C)NC(=O)OC(COC(=O)CCCCCCCCC)CN2CC2C)c1 (centres unmarked) [Ex. 22] | 1.1 fold | 1.0 fold | 1.1 fold | 1.0 fold | 1.0 fold | 1.0 fold | 1.2 fold | 1.0 fold | 1.2 fold | 1.0 fold | 0.9 fold | 1.2 fold
